Three compounds from ChEMBL document CHEMBL5247656, “Discovery of a Potent, Cooperative, and Selective SOS1 PROTAC ZZ151 with In Vivo Antitumor Efficacy in KRAS-Mutant Cancers” (J Med Chem, 2023) can be followed below.

Data set [1] has as its system ASPC1. The data set is described as follows: Antiproliferative activity against human ASPC1 cells harboring KRAS G12D mutant assessed as inhibition of cell proliferation incubated for 7 days by CellTiterGlo-3D proliferation assay. Type of data set: functional, cell-based. The settings on record: ASPC1, 168 h.
Data set [2] has as its target T1, von Hippel-Lindau disease tumor suppressor/Son of sevenless homolog 1 (Homo sapiens) (UniProt Q07889+P40337). Briefly: PROTAC activity at VHL/SOS1 in human ASPC1 cells harboring KRAS G12D mutant assessed as induction of SOS1 degradation upto 10 uM incubated for 24 hrs by immunoblotting analysis. Type of data set: cell-based.
Another data set deals with MIA PaCa-2. Briefly: Antiproliferative activity against human MIA PaCa-2 cells harboring KRAS G12C mutant assessed as inhibition of cell proliferation incubated for 7 days by CellTiterGlo-3D proliferation assay. The data set is classed as functional, cell-based. The settings on record: MIA PaCa-2, 168 h.
A further data set concerns NCI-H358. Briefly: Antiproliferative activity against human NCI-H358 cells harboring KRAS G12C mutant assessed as inhibition of cell proliferation incubated for 7 days by CellTiterGlo-3D proliferation assay. The data set is classed as functional, cell-based. The conditions noted are these: NCI-H358, 168 h.
The test system of the next data set is LoVo. Briefly: Antiproliferative activity against human LoVo cells harboring KRAS G13D mutant assessed as inhibition of cell proliferation incubated for 7 days by CellTiterGlo-3D proliferation assay. Type of data set: functional, cell-based. The settings on record: 168 h.
Data set [3] has as its system SW-620. Briefly: Antiproliferative activity against human SW620 cells harboring KRAS G12V mutant assessed as inhibition of cell proliferation incubated for 7 days by CellTiterGlo-3D proliferation assay. The data set is classed as functional, cell-based. The conditions noted are these: SW-620, 168 h.
Data set [4] addresses T1, von Hippel-Lindau disease tumor suppressor/Son of sevenless homolog 1 (Homo sapiens). The data set is described as follows: PROTAC activity at VHL/SOS1 in human NCI-H358 cells harboring KRAS G12C mutant assessed as induction of SOS1 degradation upto 10 uM incubated for 24 hrs by immunoblotting analysis. Type of data set: cell-based.
Another data set deals with A549. The data set is described as follows: Antiproliferative activity against human A549 cells harboring KRAS G12S mutant assessed as inhibition of cell proliferation incubated for 7 days by CellTiterGlo-3D proliferation assay. Type of data set: functional, cell-based. The settings on record: A549, 168 h.
In a further data set the test system is PANC-1. Briefly: Antiproliferative activity against human PANC-1 cells harboring KRAS G12D mutant assessed as inhibition of cell proliferation incubated for 7 days by CellTiterGlo-3D proliferation assay. The settings on record: PANC-1, 168 h. The data set is classed as functional, cell-based.
The subject of data set [5] is ASPC1. Briefly: Antitumor activity against human ASPC1 cells harboring KRAS G12D mutant xenografted in BALB/c nude mouse assessed as tumor growth inhibition at 50 mg/kg, ip administered twice daily for 3 weeks relative to control. The data set is classed as functional. The settings on record: ASPC1, 504 h, read-out: TGI.
The subject of data set [6] is ASPC1. Briefly: In vivo Inhibition of ERK in human ASPC1 cells harboring KRAS G12D mutant xenografted BALB/c nude mouse assessed as inhibition of ERK phosphorylation at 50 mg/kg, ip administered twice daily for 3 weeks by Immunoblot analysis. Type of data set: functional, organism-based.
Data set [7] concerns SW-620. Briefly: In vivo Inhibition of ERK in human SW620 cells harboring KRAS G12V mutant xenografted BALB/c nude mouse assessed as inhibition of ERK phosphorylation in tumor at 50 mg/kg, ip administered twice daily for 2 weeks by immunohistochemistry analysis. Type of data set: functional, organism-based.
The nature of data set [8]: Toxicity in BALB/c nude mouse xenografted with human ASPC1 cells harboring KRAS G12D mutant assessed as body weight loss at 50 mg/kg, ip administered twice daily for 3 weeks. The data set is classed as organism-based. The conditions noted are these: in vivo, 504 h.
The subject of data set [9] is ASPC1. Briefly: In vivo Inhibition of ERK in human ASPC1 cells harboring KRAS G12D mutant xenografted BALB/c nude mouse assessed as inhibition of ERK phosphorylation in tumor at 50 mg/kg, ip administered twice daily for 3 weeks by immunohistochemical analysis. The data set is classed as functional, organism-based.
Data set [10] has as its system SW-620. The data set is described as follows: Antitumor activity against human SW620 cells harboring KRAS G12V mutant xenografted in BALB/c nude mouse assessed as tumor growth inhibition at 50 mg/kg, ip administered twice daily for 2 weeks relative to control. The data set is classed as functional. The conditions noted are these: SW-620, 336 h, read-out: TGI.
Data set [11] relates to SW-620. Briefly: In vivo Inhibition of ERK in human SW620 cells harboring KRAS G12V mutant xenografted BALB/c nude mouse assessed as inhibition of ERK phosphorylation at 50 mg/kg, ip administered twice daily for 2 weeks by Immunoblot analysis. Type of data set: functional, organism-based.
Data set [12] can be described thus: Toxicity in BALB/c nude mouse xenografted with human SW620 cells harboring KRAS G12V mutant assessed as body weight loss at 50 mg/kg, ip administered twice daily for 2 weeks. The data set is classed as organism-based, SW-620. The conditions noted are these: in vivo, 336 h.
Data set [13] addresses von Hippel-Lindau disease tumor suppressor/Son of sevenless homolog 1/Elongin-B/Elongin-C (Homo sapiens) (UniProt Q07889+P40337+Q15370+Q15369). Briefly: Binding affinity to GST tagged human SOS1(564 to 1049 residues)-6his tagged human VHL (54 to 213 residues)-human ElonginC (17 to 112 residues)-human ElonginB (1 to 104 residues) expressed in Escherichia coli BL21 (DE3) cells assessed as ternary complex formation by measuring maximal HTRF signals incubated for 15 mins by HTRF analysis.

For data set [14], the target named is T2, Son of sevenless homolog 1 (Homo sapiens, UniProt Q07889).
T2 sequence (Q07889 whole entry): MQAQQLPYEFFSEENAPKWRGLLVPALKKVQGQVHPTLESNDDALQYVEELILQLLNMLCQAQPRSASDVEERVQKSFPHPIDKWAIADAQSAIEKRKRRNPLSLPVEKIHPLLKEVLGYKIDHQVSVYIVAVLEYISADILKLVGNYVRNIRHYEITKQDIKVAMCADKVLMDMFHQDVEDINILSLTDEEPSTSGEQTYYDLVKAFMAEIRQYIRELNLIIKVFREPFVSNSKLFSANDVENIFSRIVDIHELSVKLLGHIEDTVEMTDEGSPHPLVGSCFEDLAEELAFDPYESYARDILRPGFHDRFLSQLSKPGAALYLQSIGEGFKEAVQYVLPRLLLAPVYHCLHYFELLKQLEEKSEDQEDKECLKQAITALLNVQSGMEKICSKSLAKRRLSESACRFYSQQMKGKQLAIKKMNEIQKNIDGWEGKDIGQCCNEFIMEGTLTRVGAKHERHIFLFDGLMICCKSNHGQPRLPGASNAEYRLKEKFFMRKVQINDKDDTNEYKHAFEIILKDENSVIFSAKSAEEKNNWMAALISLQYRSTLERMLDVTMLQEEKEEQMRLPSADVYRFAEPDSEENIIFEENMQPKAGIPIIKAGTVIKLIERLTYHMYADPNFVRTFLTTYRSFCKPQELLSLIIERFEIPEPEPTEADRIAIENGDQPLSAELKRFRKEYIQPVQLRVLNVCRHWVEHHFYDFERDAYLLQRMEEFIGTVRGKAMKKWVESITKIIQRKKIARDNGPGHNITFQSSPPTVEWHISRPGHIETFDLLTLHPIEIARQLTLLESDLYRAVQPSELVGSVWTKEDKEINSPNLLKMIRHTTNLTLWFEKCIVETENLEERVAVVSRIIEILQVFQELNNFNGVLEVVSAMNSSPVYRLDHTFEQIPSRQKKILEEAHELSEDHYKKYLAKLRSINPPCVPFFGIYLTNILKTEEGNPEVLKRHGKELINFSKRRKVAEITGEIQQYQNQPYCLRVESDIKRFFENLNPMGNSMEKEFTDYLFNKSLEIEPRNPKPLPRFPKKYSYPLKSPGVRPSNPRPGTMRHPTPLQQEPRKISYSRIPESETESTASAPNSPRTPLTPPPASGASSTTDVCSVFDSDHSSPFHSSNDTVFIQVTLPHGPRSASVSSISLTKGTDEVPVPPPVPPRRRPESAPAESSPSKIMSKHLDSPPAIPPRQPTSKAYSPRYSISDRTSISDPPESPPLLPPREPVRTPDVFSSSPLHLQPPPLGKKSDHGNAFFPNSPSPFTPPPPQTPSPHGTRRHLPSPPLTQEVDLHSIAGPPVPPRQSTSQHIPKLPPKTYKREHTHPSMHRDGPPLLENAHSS
The data set is described as follows: Binding affinity to GST-tagged human SOS1 (564 to 1049 residues) expressed in Escherichia coli BL21 (DE3) cells assessed as ternary complex formation by measuring dissociation constant incubated for 15 mins in the presence of 6His tagged human VCB by fluorescence polarization-based displacement assay.

The target of data set [15] is T3, Son of sevenless homolog 1 (Homo sapiens) (UniProt Q07889).
T3 sequence (whole entry): T2 sequence (Q07889 whole entry)
Briefly: Induction of SOS1 degradation in human NCI-H358 cells at 0.1 to 1 uM incubated for 24 hrs by immunoblot analysis. Type of data set: cell-based. The settings on record: dose 0.1-1 µM.

The target of data set [16] is T2, Son of sevenless homolog 1. Briefly: Binding affinity to GST-tagged human SOS1 (564 to 1049 residues) expressed in Escherichia coli BL21 (DE3) cells assessed as binary complex formation by measuring dissociation constant incubated for 15 mins by fluorescence polarization-based displacement assay.

Activity calls are given as the source filed them. No cut-off for these calls is given here.

For `COc1cc2nc(C)nc(N[C@H](C)c3cc(N)cc(C(F)(F)F)c3)c2cc1C1CCN(C(=O)CCCCCC(=O)N[C@H](C(=O)N2C[C@@H](O)C[C@H]2C(=O)N[C@@H](C)c2ccc(-c3scnc3C)cc2)C(C)(C)C)CC1`, the IC50 in the data set with ASPC1 [1] was 302 nM; in the data set with MIA PaCa-2 it was 957 nM; in the data set with NCI-H358, 457 nM; with LoVo it was > 1000 nM; in the data set on SW-620 [3], 303 nM; in the data set with A549 it was 731 nM. Besides, the IC50 with PANC-1 stood at 188 nM. In addition, the outcome in [2] and in [4] was inactive.
In the case of `COc1cc2nc(C)nc(N[C@H](C)c3cc(N)cc(C(F)(F)F)c3)c2cc1O[C@H]1CCOC1`, the inhibition in vivo at 50 mg/kg was determined as 43.6% in the data set with ASPC1 [5] and 61.4% with SW-620 [10]. Also, the IC50 in the data set on ASPC1 [1] is 64.4 nM; in the data set with MIA PaCa-2 it was 24.8 nM; in the data set with NCI-H358, 16.5 nM; in the data set on LoVo, 142 nM; in the data set on SW-620 [3] it was 30.1 nM; with A549, 263 nM. For the same compound, the concentration for half-maximal inhibition (IC50) in the data set with PANC-1 amounted to 17.8 nM. Besides, the inhibition entry in the data set with ASPC1 [6], in the data set with SW-620 [7], with ASPC1 [9] and in the data set with SW-620 [11] was “Active” each time. Moreover, the Activity result in data set [8] and in [12] was “Non-Toxic” throughout.
`COc1cc2nc(C)nc(NC(C)c3cc(N)cc(C(F)(F)F)c3)c2cc1C1CCN(C(C)=O)CC1` (stereo not given): the IC50 in the data set with ASPC1 [1] amounted to 36.7 nM; with MIA PaCa-2, 48.5 nM; with NCI-H358, 74.6 nM; with LoVo, 79.8 nM; with SW-620 [3], 36.3 nM; with A549, 134 nM. Further, the IC50 in the data set on PANC-1 came out at 23.1 nM. Besides, the result in data set [13] and in data set [15] was inactive. In addition, the Kd amounted to 26.5 nM in [14] and 26.9 nM in [16].
